This assay has as its target T1, EZH2 within the PRC2 complex (Homo sapiens, UniProt Q15910).
T1 construct: FLAG; made in house; host or cells: Sf9 cells
Kind of assay: EZH2 methyltransferase scintillation proximity assay (SPA). The following applies: methyltransferase activity of EZH2 in human PRC2 complex, 3H-SAM, HeLa mononucleosomes. The format is biochemical. Here is the method: Compounds contained herein were evaluated for their ability to inhibit the methyltransferase activity of EZH2 within the PRC2 complex. Human PRC2 complex was prepared by co-expressing each of the 5 member proteins (FLAG-EZH2, EED, SUZ12, RbAp48, AEBP2) in Sf9 cells followed by co-purification. Enzyme activity was measured in a scintillation proximity assay (SPA) where a tritiated methyl group is transferred from 3H-SAM to a lysine residue on Histone H3 of a mononucleosome, purified from HeLa cells. Mononucleosomes were captured on SPA beads and the resulting signal is read on a ViewLux plate reader.
Part A. Compound Preparation
• 1. Prepare 10 mM stock of compounds from solid in 100% DMSO. • 2. Set up an 11-point serial dilution (1:3 dilution, top concentration 10 mM) in 100% DMSO for each test compound in a 384 well plate leaving columns 6 and 18 for DMSO controls. • 3. Dispense 100 nL of compound from the dilution plate into reaction plates (Grenier Bio-One, 384-well, Cat#784075). Part B. Reagent Preparation Prepare the following solutions: • 1. 50 mM Tris-HCl, pH 8: Per 1 L of base buffer, combine 1 M Tris-HCl, pH 8 (50 mL) and distilled water (950 mL). • 2. 1× Assay Buffer: Per 10 mL of 1× Assay Buffer, combine 50 mM Tris-HCl, pH 8 (9958 uL), 1 M MgCl2 (20 uL), 2 M DTT (20 uL), and 10% Tween-20 (2 uL) to provide a final concentration of 50 mM Tris-HCl, pH 8, 2 mM MgCl2, 4 mM DTT, 0.002% Tween-20. • 3. 2× Enzyme Solution: Per 10 mL of 2× Enzyme Solution, combine 1× Assay Buffer and PRC2 complex to provide a final enzyme concentration of 10 nM. • 4. SPA Bead Suspension: Per 1 mL of SPA Bead Suspension, combine PS-PEI coated LEADSeeker beads (40 mg) and ddH2O (1 mL) to provide a final concentration of 40 mg/mL. • 5. 2× Substrate Solution: Per 10 mL of 2× Substrate Solution, combine 1× Assay Buffer (9728.55 uL), 800 ug/mL mononucleosomes (125 uL), 1 mM cold SAM (4 uL), and 7.02 uM 3H-SAM (142.45 uL; 0.55 mCi/mL) to provide a final concentration of 5 ug/mL nucleosomes, 0.2 uM cold SAM, and 0.05 uM 3H-SAM. • 6. 2.67× Quench/Bead Mixture: Per 10 mL of 2.67× Quench/Bead Mixture, combine ddH2O (9358 uL), 10 mM cold SAM (267 uL), 40 mg/mL Bead Suspension (375 uL) to provide a final concentration of 100 uM cold SAM and 0.5 mg/mL SPA beads. Part C. Assay Reaction in 384-well Grenier Bio-One Plates Compound Addition • 1. Dispense […] of 100× Compound to test wells (as noted above). • 2. Dispense […] of 100% DMSO to columns 6 & 18 for high and low controls, respectively. Assay • 1. Dispense 5 uL/well of 1× Assay Buffer to column 18 (low control reactions). • 2. Dispense 5 uL/well of 2× Enzyme Solution to columns 1-17, 19-24. • 3. Spin assay plates for ˜1 minute at 500 rpm. • 4. Stack the assay plates, covering the top plate. • 5. Incubate the compound/DMSO with the enzyme for 30 minutes at room temperature. • 6. Dispense 5 uL/well of 2× Substrate Solution to columns 1-24. • 7. Spin assay plates for ˜1 minute at 500 rpm. • 8. Stack the assay plates, covering the top plate. • 9. Incubate the assay plates at room temperature for 1 hour. Quench/Bead Addition • 1. Dispense 5 uL/well of the 3× Quench/Bead Mixture to columns 1-24. • 2. Seal the top of each assay plate with adhesive TopSeal. • 3. Spin assay plates for ˜1 minute at 500 rpm. • 4. Equilibrate the plates for >20 min. Read Plates • 1. Read the assay plates on the Viewlux Plate Reader utilizing the 613 nm emission filter with a 300 s read time. Reagent addition can be done manually or with automated liquid handler. *The final DMSO concentration in this assay is 1%. *The positive control is in column 6; negative control is in column 18. *Final starting concentration of compounds is 100 μM. Part D. Data Analysis
Percent inhibition was calculated relative to the DMSO control for each compound concentration and the resulting values were fit using standard IC50 fitting parameters within the ABASE data fitting software package.
T1 sequence (Q15910 whole entry): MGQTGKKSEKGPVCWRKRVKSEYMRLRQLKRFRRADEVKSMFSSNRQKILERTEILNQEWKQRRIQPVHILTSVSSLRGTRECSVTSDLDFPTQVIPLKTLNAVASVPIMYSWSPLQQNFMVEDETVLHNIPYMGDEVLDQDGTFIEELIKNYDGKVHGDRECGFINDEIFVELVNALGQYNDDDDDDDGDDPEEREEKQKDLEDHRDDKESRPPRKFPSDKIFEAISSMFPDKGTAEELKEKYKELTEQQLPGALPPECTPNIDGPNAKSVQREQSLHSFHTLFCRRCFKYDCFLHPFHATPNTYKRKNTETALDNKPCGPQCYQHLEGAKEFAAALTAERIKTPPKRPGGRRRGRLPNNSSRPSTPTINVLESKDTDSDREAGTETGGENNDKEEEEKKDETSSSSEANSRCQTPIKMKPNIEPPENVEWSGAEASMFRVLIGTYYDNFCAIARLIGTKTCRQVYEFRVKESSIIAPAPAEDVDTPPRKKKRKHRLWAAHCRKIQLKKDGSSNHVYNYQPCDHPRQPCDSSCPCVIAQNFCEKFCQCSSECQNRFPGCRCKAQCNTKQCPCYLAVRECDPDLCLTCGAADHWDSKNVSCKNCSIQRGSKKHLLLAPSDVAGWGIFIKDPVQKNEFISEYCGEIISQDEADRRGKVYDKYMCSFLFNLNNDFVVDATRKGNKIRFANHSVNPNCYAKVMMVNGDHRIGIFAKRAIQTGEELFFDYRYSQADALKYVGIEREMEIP
T1 sequence (O75530 whole entry partner): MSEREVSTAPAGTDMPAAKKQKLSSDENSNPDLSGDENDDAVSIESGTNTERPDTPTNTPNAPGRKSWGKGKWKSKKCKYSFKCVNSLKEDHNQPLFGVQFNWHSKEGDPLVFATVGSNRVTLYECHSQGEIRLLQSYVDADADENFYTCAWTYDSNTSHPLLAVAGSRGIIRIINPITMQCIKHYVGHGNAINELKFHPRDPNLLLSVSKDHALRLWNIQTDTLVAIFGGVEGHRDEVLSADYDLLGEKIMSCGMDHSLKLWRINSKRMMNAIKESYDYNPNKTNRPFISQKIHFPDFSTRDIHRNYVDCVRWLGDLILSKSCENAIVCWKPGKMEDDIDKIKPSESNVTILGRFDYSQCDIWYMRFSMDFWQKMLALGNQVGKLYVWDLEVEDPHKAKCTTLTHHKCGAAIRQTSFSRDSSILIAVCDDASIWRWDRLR
T1 sequence (Q15022 whole entry partner): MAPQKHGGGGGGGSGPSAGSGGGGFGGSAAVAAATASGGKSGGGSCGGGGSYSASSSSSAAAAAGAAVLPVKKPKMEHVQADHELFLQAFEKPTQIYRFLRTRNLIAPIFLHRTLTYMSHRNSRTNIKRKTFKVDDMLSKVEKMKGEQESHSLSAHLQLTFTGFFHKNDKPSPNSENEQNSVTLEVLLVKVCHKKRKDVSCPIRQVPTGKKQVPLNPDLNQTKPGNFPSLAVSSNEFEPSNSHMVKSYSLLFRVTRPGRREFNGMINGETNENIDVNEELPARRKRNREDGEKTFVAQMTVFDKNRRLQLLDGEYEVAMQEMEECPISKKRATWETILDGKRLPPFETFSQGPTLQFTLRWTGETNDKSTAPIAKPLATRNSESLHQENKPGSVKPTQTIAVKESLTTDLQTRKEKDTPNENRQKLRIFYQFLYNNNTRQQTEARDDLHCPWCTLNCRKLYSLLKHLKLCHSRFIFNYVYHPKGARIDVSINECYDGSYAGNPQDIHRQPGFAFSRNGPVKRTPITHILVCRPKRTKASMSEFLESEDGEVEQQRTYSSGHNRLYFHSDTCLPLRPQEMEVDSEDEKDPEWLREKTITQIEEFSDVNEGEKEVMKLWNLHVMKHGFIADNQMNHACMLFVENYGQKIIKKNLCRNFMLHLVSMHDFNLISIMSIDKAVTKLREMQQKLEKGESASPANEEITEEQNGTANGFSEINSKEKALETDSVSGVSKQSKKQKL
T1 sequence (Q09028 whole entry partner): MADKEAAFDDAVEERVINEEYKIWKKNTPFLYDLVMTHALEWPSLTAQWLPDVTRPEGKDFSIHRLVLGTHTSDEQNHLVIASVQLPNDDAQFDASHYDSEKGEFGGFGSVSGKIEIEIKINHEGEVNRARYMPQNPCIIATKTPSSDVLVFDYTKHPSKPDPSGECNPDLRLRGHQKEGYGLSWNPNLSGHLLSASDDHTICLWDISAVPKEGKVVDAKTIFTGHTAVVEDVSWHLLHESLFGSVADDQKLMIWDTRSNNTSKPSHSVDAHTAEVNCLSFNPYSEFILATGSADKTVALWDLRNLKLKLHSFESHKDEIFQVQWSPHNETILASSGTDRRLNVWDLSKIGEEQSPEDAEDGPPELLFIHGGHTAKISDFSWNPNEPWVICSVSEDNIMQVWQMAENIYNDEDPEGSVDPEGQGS
T1 sequence (Q6ZN18 whole entry partner): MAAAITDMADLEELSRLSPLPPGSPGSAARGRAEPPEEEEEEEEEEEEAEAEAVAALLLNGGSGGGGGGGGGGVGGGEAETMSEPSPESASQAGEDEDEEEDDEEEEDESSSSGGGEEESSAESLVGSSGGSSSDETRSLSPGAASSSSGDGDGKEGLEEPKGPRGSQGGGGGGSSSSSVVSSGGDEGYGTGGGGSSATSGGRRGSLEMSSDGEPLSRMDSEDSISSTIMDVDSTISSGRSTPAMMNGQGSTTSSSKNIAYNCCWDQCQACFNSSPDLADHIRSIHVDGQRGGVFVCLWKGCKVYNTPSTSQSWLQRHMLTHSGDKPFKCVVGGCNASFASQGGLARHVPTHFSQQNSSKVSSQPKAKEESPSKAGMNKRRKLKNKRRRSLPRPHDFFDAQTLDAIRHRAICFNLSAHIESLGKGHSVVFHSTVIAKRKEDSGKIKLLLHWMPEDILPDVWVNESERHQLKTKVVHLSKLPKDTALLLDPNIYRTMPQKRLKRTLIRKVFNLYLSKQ
Molecule “1-isopropyl-N-((6-methyl-2-oxo-4-propyl-1,2-dihydropyridin-3-yl)methyl)-6-(thiophen-3-yl)-1H-indazole-4-carboxamide [Example 32]” yielded a half-inhibitory concentration (IC50) of 25 nM. That is a double-digit nanomolar value. As to `CCCc1cc(C)[nH]c(=O)c1CNC(=O)c1cc(Cl)cc2c1cnn2C(C)C` [Example 1, 6-chloro-1-(1-methylethyl)-N-[(6-methyl-2-oxo-4-propyl-1,2-dihydro-3-pyridinyl)methyl]-1H-indazole-4-carboxamide], the half-inhibitory concentration (IC50) came to 32 nM. The IC50 values of the last two molecules are within 1.5-fold of each other.

The molecule `Cc1cc(C)c(CNC(=O)c2cc(Br)cc3c2cnn3C(C)C)c(=O)[nH]1` [Example 3, 6-Bromo-N-[(4,6-dimethyl-2-oxo-1,2-dihydro-3-pyridinyl)methyl]-1-(1-methylethyl)-1H-indazole-4-carboxamide] registered an IC50 of 158 nM.

The molecule `CCc1cc(C)[nH]c(=O)c1CNC(=O)c1cc(Br)cc2c1cnn2C(C)C` [Example 4, 6-bromo-N-((4-ethyl-6-methyl-2-oxo-1,2-dihydropyridin-3-yl)methyl)-1-isopropyl-1H-indazole-4-carboxamide] gave an IC50 of 25 nM. As to `Cc1cc(Cc2ccccc2)c(CNC(=O)c2cc(Br)cc3c2cnn3C(C)C)c(=O)[nH]1` [Example 5, 6-bromo-1-(1-methylethyl)-N-{[6-methyl-2-oxo-4-(phenylmethyl)-1,2-dihydro-3-pyridinyl]methyl}-1H-indazole-4-carboxamide], inhibition was half-maximal at 8 nM (IC50). This IC50 lies about 3.1-fold lower than the previous one. In turn, `Cc1cc(Cc2ccccc2)c(CNC(=O)c2cccc3c2cnn3C(C)C)c(=O)[nH]1` [Example 7, 1-(1-methylethyl)-N-{[6-methyl-2-oxo-4-(phenylmethyl)-1,2-dihydro-3-pyridinyl]methyl}-1H-indazole-4-carboxamide] came in with an IC50 of 40 nM.

In turn, `Cc1cc(C)c(CNC(=O)c2cc(-c3ccc(OCCN(C)C)cc3)cc3c2cnn3C(C)C)c(=O)[nH]1` [Example 8, N-((4,6-dimethyl-2-oxo-1,2-dihydropyridin-3-yl)methyl)-6-(4-(2-(dimethylamino)ethoxy)phenyl)-1-isopropyl-1H-indazole-4-carboxamide] gave an IC50 of 10 nM. Against the preceding molecule, the IC50 is about 4-fold lower. Regarding `Cc1cc(C)c(CNC(=O)c2cc(-c3ccc(N4CCNCC4)cc3)cc3c2cnn3C(C)C)c(=O)[nH]1` [Example 9, N-[(4,6-dimethyl-2-oxo-1,2-dihydro-3-pyridinyl)methyl]-1-(1-methylethyl)-6-[4-(1-piperazinyl)phenyl]-1H-indazole-4-carboxamide], half-maximal inhibition (IC50) required 16 nM.

Turning to `Cc1cc(C)c(CNC(=O)c2cc(-c3ccc(N4CCNCC4)nc3)cc3c2cnn3C(C)C)c(=O)[nH]1` [Example 10, N-[(4,6-dimethyl-2-oxo-1,2-dihydro-3-pyridinyl)methyl]-1-(1-methylethyl)-6-[6-(1-piperazinyl)-3-pyridinyl]-1H-indazole-4-carboxamide], the IC50 is 13 nM. This IC50 and that of the molecule before are within 1.5-fold of each other. `Cc1cc(C(C)C)c(CNC(=O)c2cc(-c3ccc(N4CCNCC4)nc3)cc3c2cnn3C(C)C)c(=O)[nH]1` [Example 12, 1-isopropyl-N-((4-isopropyl-6-methyl-2-oxo-1,2-dihydropyridin-3-yl)methyl)-6-(6-(piperazin-1-yl)pyridin-3-yl)-1H-indazole-4-carboxamide] registered an IC50 of 4 nM. Then `Cc1cc(C)c(CNC(=O)c2cc(-c3cnn(C)c3)cc3c2cnn3C(C)C)c(=O)[nH]1` [Example 13, N-((4,6-dimethyl-2-oxo-1,2-dihydropyridin-3-yl)methyl)-1-isopropyl-6-(1-methyl-1H-pyrazol-4-yl)-1H-indazole-4-carboxamide], with 126 nM.

On to `CCc1cc(C)[nH]c(=O)c1CNC(=O)c1cc(-c2ccc(CN(C)C)cc2)cc2c1cnn2C(C)C` [Example 14, 6-(4-((dimethylamino)methyl)phenyl)-N-((4-ethyl-6-methyl-2-oxo-1,2-dihydropyridin-3-yl)methyl)-1-isopropyl-1H-indazole-4-carboxamide], for which the IC50 was found to be 5 nM.
